Assay results as given in article PMC11320730, “5-Methoxy-2-aminoindane Reverses Diet-Induced Obesity and Improves Metabolic Parameters in Mice: A Potential New Class of Antiobesity Therapeutics” (ACS Pharmacology & Translational Science, 2024).

How the values were obtained:
5-HT2A = biological target: T1, 5-HT2A (Homo sapiens, UniProt P28223); assay: Ligand binding assay (Eurofins); conditions: read-out: inhibitory activity (% inhibition of the binding of a specific ligand)
T1 construct: Eurofins (contract screening service)
Description: (§1) MEAI at 10 μM was tested in ligand binding assays at Eurofins Inc., as described previously.[20] Compound binding was calculated as a % inhibition of the binding of a ligand specific for each target. Results showing an inhibition or stimulation higher than 50% are considered to represent significant effects of MEAI. In each experiment, and if applicable, the respective reference compound was tested concurrently with MEAI and the data were compared with historical values determined at Eurofins. The experiment was accepted in accordance with the Eurofins validation Standard Operating Procedure.

5-HT1A = biological target: T2, 5-HT1A (Homo sapiens, UniProt P08908); assay: Ligand binding assay (Eurofins); conditions: read-out: inhibitory activity (% inhibition of the binding of a specific ligand)
T2 construct: Eurofins (contract screening service)
Description: as §1

MAO-A enzyme = biological target: T3, MAO-A enzyme (Homo sapiens, UniProt P21397); assay: Ligand binding assay (Eurofins); conditions: read-out: inhibitory activity (% inhibition of the binding of a specific ligand)
T3 construct: Eurofins (contract screening service)
Description: as §1

dopamine D2 receptor = biological target: T4, dopamine D2 receptor (Homo sapiens, UniProt P14416); assay: Ligand binding assay (Eurofins); conditions: read-out: inhibitory activity (% inhibition of the binding of a specific ligand)
T4 construct: Eurofins (contract screening service)
Description: as §1

DIO C57BL/6 mice [1] = assay: Multiparameter metabolic assessment in DIO mice; format: in vivo
Description: (§2) Male C57BL/6 mice were used to establish DIO by feeding them a high-fat diet (HFD; 60% cal/L fat, 20% cal/L protein, and 20% cal/L carbohydrates; Research Diet, D12492) for 18 weeks. After this period, mice were treated with either vehicle (sterile water, N = 8) or MEAI (N = 11) daily for 28 days by gavage at a dose of 40 mg/kg/day. Age-matched control mice (N = 10) on a standard diet (STD; 14% kcal fat, 24% kcal protein, 62% kcal carbohydrates; NIH-31 rodent diet) received vehicle daily. The body weight of all mice was monitored daily, and total body fat and lean mass were determined by EchoMRI-100H (Echo Medical Systems LLC, Houston, Texas, USA). On day 29, at the end of the experimental period, mice were euthanized by a cervical dislocation under anesthesia. The kidneys, brain, liver, and fat pads were removed and weighed, and samples were either snap-frozen or fixed in buffered 4% formalin. Trunk blood was collected to determine the biochemical parameters.
The metabolic profiles and food and water intakes of the mice were assessed using the Promethion High-Definition Behavioral Phenotyping System (Sable Instruments, Inc., Las Vegas, Nevada, USA). MetaScreen software version 2.2.18.0 was used for data acquisition and instrument control. Raw data were processed using ExpeData version 1.8.4 with an analysis script detailing all aspects of the data transformation. Mice with free access to food and water, housed at temperatures of (22–23 °C), were subjected to a standard 12 h light/12 h dark cycle, which consisted of a 48 h acclimation period followed by 24 h of sampling after dosing. Respiratory gases were measured using the GA-3 gas analyzer (Sable Systems, Inc., Las Vegas, Nevada, USA) employing a pull-mode negative-pressure system. Airflow was measured and controlled by an FR-8 instrument (Sable Systems, Inc., Las Vegas, Nevada, USA) at a flow rate of 2000 mL/min. Water vapor was continuously measured, and its dilution effect on O2 and CO2 was mathematically compensated. Respiratory exchange rate (RER) was calculated as the ratio of CO2 produced (VCO2) to O2 consumed (VO2) using eq 1): [drawing 1] 1
Total energy expenditure (TEE) was calculated using VO2 and RER, according to eq 2: [drawing 2] 2
Fat oxidation (FO) and carbohydrate oxidation (CHO) were calculated using VO2 and VCO2 based on eqs 3 and 4, respectively: [drawing 3] 3 [drawing 4] 4
Energy balance and energy flux were derived from eqs 5 and 6: [drawing 5] 5 [drawing 6] 6
The thermic effect of food for each animal was calculated based on its individual food intake in a period of 24 h according to the specific percentage of carbohydrates, fats, and proteins in the consumed diet.
The basal energy expenditure was calculated based on the mean energy expenditure (EE) during the lowest EE in a 30 min period, in kilocalories per hour (kcal/h). This calculation represented the animal’s basal metabolic rate.

DIO C57BL/6 mice [2] = assay: Glucose tolerance test (ipGTT) and insulin tolerance test (ipITT) in DIO mice; format: in vivo; conditions: 40 mg/kg/day
Description: as §2
On day 25 of the experiment, mice were subjected to an overnight fasting and then injected with glucose (1.5 g/kg i.p.) on the following day (day 26). Blood glucose levels were determined at 0, 15, 30, 45, 60, 90, and 120 min after injection using the Contour glucometer (Bayer, Pittsburgh, Pennsylvania, USA). The mice were then fasted for 6 h the next day (day 27) before being administered insulin (0.75 U/kg, i.p.; Actrapid vials, Novo Nordisk A/S, Bagsværd, Denmark). Blood glucose levels were determined at the same intervals as those described above. To assess insulin resistance, the homeostasis model assessment insulin resistance (HOMA-IR) was calculated as fasting serum insulin ([μU/mL] × fasting plasma glucose [mmol/L]/22.5). The relative insulin sensitivity index (ISI) was calculated as 1/(glucose × insulin) × 1000, with glucose expressed as mg/dL and insulin as mU/L.

[3] = test system: norepinephrine transporter (NET); design: method as in PMID 30904940; conditions: cited from earlier work
[4] = test system: dopamine transporter (DAT); design: method as in PMID 30904940; conditions: cited from earlier work
DIO C57BL/6 mice [5] = assay: Wheel running and locomotor activity in DIO mice; format: in vivo; conditions: 40 mg/kg/day
Description: as §2
The activity energy expenditure was calculated based on eq 7: [drawing 7] 7
The assessment of wheel running and locomotor activity was performed by using the Promethion High-Definition Behavioral Phenotyping System (Sable Instruments, Inc., Las Vegas, Nevada, USA). Wheel revolutions were measured with a monitor that recorded voluntary wheel running activity, and locomotor activity was quantified using disruptions of infrared XYZ beam arrays with a beam spacing of 0.25 cm. Pedestrian locomotion represented the sum of all directed ambulatory locomotion within the beam break system, using a speed cutoff of 1 cm/s. Total distance represented the sum of all distances traveled within the beam break system, not including any distance run on the wheel in meters (m); this included fine movements (such as grooming and scratching).

[6] = DIO mice, 40 mg/kg/day, vs HFD vehicle
[7] = vs HFD-vehicle, did not surpass STD-vehicle

T3 sequence (P21397 whole entry, species assumed): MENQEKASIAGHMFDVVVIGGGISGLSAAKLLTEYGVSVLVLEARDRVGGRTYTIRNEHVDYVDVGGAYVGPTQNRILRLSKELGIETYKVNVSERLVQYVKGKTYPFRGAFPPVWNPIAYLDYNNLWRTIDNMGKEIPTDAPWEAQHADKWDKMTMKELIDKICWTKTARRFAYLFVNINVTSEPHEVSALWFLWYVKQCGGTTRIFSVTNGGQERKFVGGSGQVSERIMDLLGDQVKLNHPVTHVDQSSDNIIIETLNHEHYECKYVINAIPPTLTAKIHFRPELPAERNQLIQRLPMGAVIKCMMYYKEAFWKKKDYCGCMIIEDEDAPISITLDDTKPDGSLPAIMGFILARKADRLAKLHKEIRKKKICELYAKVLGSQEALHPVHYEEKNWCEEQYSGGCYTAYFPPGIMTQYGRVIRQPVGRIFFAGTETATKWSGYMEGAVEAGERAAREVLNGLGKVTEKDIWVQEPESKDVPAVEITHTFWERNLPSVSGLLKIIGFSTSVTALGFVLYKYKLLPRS
T4 sequence (P14416 whole entry, species assumed): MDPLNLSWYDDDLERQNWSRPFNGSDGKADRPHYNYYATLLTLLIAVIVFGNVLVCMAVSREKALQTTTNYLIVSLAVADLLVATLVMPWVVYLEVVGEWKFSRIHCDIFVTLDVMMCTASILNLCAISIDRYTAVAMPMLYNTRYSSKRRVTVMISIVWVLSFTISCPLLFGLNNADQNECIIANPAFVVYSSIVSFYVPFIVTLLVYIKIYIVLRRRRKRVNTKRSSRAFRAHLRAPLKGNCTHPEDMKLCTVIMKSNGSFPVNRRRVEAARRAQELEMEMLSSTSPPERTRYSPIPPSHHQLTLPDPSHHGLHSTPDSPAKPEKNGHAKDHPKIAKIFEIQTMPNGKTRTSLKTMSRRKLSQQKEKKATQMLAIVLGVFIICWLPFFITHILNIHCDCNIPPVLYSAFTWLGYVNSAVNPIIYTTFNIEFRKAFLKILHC
T2 sequence (P08908 whole entry, species assumed): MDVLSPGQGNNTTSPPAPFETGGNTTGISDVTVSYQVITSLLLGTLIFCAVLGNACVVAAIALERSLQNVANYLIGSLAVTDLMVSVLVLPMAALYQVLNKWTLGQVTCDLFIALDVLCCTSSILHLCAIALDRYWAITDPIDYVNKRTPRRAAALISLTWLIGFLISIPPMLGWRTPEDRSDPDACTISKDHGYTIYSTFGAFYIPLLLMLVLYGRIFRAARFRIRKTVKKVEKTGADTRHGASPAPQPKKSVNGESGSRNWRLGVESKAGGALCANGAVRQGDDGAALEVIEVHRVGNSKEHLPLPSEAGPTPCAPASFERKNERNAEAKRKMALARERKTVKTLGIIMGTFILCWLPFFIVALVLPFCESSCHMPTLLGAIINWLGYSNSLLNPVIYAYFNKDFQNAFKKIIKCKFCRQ
T1 sequence (P28223 whole entry): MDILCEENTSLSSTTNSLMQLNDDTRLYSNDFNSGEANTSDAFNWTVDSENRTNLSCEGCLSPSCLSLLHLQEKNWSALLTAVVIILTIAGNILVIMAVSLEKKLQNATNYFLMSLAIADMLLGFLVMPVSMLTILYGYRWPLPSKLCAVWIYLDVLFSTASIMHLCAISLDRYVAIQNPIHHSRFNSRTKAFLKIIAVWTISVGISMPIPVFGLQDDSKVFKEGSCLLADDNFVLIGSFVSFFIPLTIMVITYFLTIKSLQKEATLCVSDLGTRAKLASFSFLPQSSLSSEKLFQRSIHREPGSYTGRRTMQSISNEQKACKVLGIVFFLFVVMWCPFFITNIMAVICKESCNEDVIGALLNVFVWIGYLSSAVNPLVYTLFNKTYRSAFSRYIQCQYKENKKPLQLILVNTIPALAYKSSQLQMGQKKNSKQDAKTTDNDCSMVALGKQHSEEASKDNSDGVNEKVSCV

In the case of COc1ccc2c(c1)CC(N)C2.Cl (stereo not drawn) [MEAI, 2,3-Dihydro-5-methoxy-1H-inden-2-amine hydrochloride], the inhibition at 10 µM (5-HT2A) is reported as over 50%, the inhibition at 10 µM (5-HT1A) is reported as over 50% and the inhibition at 10 µM (MAO-A enzyme) is reported as over 50%. For the same molecule, the inhibition at 10 µM (dopamine D2 receptor) was over 50%, the basal energy expenditure (DIO C57BL/6 mice [1]; DIO mice, 40 mg/kg/day) was “significantly boosted” and the “cumulative TEE” value (DIO C57BL/6 mice [1]; DIO mice, 40 mg/kg/day) was “increases”. The water consumption (DIO C57BL/6 mice [1]; DIO mice, 40 mg/kg/day) was “did not exert any significant influence”, the “total food intake over 24 h” value (DIO C57BL/6 mice [1]; DIO mice, 40 mg/kg/day, across all groups) was “similar” and the overall energy balance (DIO C57BL/6 mice [1]; DIO mice, 40 mg/kg/day, across the groups) was “no significant changes”. For the same molecule, the “thermodynamic (thermic) effect of food” value (DIO C57BL/6 mice [1]; DIO mice, 40 mg/kg/day, between groups) was “remained unchanged”, the RER (DIO C57BL/6 mice [1]; DIO mice, 40 mg/kg/day, in comparison to STD vehicle group) was “slightly decreased” and the “differences in TEE by ANCOVA using lean mass as covariant” value (DIO C57BL/6 mice [1]; DIO mice, 40 mg/kg/day, p = 0.0097 vs HFD vehicle) was “treatment-dependent”. For the same molecule, the average energy expenditure (DIO C57BL/6 mice [1]; DIO mice, 40 mg/kg/day, vs HFD and STD vehicle, light and dark phases) was “significant increase”, the CHO levels (DIO C57BL/6 mice [1]; [6]) was “no direct effect of the drug itself observed” and the carbon dioxide production (DIO C57BL/6 mice [1]; [6]) was “slightly increased”. For the same molecule, the oxygen consumption (DIO C57BL/6 mice [1]; [6]) was “slightly increased”, the “overall rate of FO” value (DIO C57BL/6 mice [1]; DIO mice, 40 mg/kg/day, vs HFD- and STD-vehicle groups) was “increase” and the energy flux (DIO C57BL/6 mice [1]; DIO mice, 40 mg/kg/day, vs vehicle groups) was “significant increase”. The “meal size (food intake per meal)” value (DIO C57BL/6 mice [1]; HFD-fed mice regardless of MEAI treatment (40 mg/kg/day), vs STD) was “significant reduction”, the HOMA-IR score (DIO C57BL/6 mice [2]) was “improved” and the ISI score (DIO C57BL/6 mice [2]) was “improved”. For the same molecule, the “fasting blood glucose levels” value (DIO C57BL/6 mice [2]) was “reduced”, the “glucose metabolism (glucose and insulin tolerance tests)” value (DIO C57BL/6 mice [2]; days 26-27) was “significant improvement” and the interaction with transporter [3] was “interacts”. The interaction with transporter [4] was “interacts”, the voluntary wheel running (DIO C57BL/6 mice [5]) was “increased capability to run on the voluntary wheel” and the wheel running speed (DIO C57BL/6 mice [5]) was “comparable to the STD-vehicle-treated group”. The “interaction times with food and water dispensers (time budget)” value (DIO C57BL/6 mice [5]; Results section) was “extended”, the “voluntary ambulatory behaviors (pedestrian activity and grooming)” value (DIO C57BL/6 mice [5]; pronounced during nocturnal phase) was “significantly boosted” and the “energy expenditure associated with activity levels” value (DIO C57BL/6 mice [5]; trend toward an increase) was “did not reach statistical significance”. The pedestrian activity (DIO C57BL/6 mice [5]; [7]) was “increased”, the pedestrian speed (DIO C57BL/6 mice [5]; [7]) was “increased” and the total distance traveled (DIO C57BL/6 mice [5]; [7]) was “increased”.
